EC50 data for 13 compounds are collected here from US20220281886A1, “NATRIURETIC PEPTIDE RECEPTOR A AGONISTS USEFUL FOR THE TREATMENT OF CARDIOMETABOLIC DISEASES, KIDNEY DISEASE AND DIABETES” (Merck Sharp & Dohme Corp., priority 2019, published 2022).

Molecules are shown by their SMILES.

This assay concerns the target T1, hNPRA (Homo sapiens, UniProt P16066).
T1 construct: expressed in transfected cells
T1 sequence (P16066 33-1061): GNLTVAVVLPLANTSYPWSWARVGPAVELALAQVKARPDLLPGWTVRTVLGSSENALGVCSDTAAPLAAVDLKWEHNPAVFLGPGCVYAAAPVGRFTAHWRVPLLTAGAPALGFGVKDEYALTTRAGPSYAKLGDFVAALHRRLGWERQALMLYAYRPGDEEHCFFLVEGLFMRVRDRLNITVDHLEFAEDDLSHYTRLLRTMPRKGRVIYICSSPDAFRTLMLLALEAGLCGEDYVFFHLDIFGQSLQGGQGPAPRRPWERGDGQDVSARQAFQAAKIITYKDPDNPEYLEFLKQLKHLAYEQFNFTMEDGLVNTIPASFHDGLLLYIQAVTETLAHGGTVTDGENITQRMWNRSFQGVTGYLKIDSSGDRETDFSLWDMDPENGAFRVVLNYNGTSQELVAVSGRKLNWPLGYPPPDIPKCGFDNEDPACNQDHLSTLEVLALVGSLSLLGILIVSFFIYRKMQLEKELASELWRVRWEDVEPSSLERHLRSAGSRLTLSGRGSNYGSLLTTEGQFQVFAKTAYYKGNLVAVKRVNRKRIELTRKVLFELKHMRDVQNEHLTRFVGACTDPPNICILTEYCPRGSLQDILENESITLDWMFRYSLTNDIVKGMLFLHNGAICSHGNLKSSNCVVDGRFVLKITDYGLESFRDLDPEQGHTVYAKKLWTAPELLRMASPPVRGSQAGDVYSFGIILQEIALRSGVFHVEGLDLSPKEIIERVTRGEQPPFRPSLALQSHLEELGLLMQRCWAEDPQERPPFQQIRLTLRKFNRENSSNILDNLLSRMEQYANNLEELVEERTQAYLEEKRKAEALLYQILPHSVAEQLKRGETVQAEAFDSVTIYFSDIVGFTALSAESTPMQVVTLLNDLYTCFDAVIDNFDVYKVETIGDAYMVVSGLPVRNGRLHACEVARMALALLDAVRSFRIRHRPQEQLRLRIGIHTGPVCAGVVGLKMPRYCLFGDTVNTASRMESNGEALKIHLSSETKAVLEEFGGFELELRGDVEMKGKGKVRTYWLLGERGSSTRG
As to the kind of experiment: NPRA Functional Cell Assay (cGMP HTRF). The assay is classed as cell-based. As to conditions: Human NPRA HEK JumpIn stable cells; cGMP by HTRF after 1 hour at 37° C.; 10-point dose response. An excerpt:
Assay Buffer components HEPES and Opti-MEM® I Reduced-Serum with Glutamine (no phenol red) were from Gibco/Invitrogen (Thermo Fisher Scientific, Waltham, Mass. USA). 3-Isobutyl-1-methylxanthine (IBMX) and 4-(3-Butoxy-4-methoxybenzyl)imidazolidin-2-one (RO20) were obtained from Sigma-Aldrich (St. Louis, Mo., USA). DPBS (Dulbecco's phosphate-buffered saline) without Ca2+ and Mg2+ was purchased from GE Healthcare Bio-Sciences (Pittsburgh, Pa., USA). 384 well white Optiplates were from Perkin Elmer (Atlantic Highlands, N.J., USA). Human ANP (Atrial Natriuretic Peptide) (1-28) was purchased from Sigma-Aldrich (Catalog #A1663) and rat ANP (1-28) from Bachem (Torrance, Calif., USA) (Catalog #H2100). Human-BNP (Human-Brain Natriuretic Peptide) (1-32 AA) was purchased from American Peptide Company (Sunnyvale, Calif., USA) (product No. 14-1-90). cGMP kits were purchased from Cisbio. The assay ready frozen (ARF) Human/rat/dog NPRA HEK JumpIn Stable frozen cells (low passage number 5-11) were prepared in-house.
Test compounds were titrated in DMSO in a 10-point dose response in a separate step followed by a 100-fold dilution into the reaction. Positive response for each assay was determined using 10 nM rat-ANP peptide (rat cells) or 50 nM h-ANP peptide (human and dog cells).
Cells were thawed, washed with DPBS and resuspended in assay buffer (Opti-MEM+Glutamine, phenol red free media, 10 mM HEPES, 100 uM IBMX and 100 uM RO20) that was warmed to 37° C. Cells were then transferred to microplates via a Microplate Combi dispenser at a density of 1500, 400 and 1200 cells/well for human, rat and dog cells respectively, followed by acoustic transfer (Echo) of compound.
Compounds and cells were incubated at 37° C. with 5% CO2 for 1 hour, after which the cells were lysed and cGMP was captured using a CisBio cGMP HTRF assay kit. The TRF signal was measured with an Envision plate reader (emission set to 615 and 665 nm) after 1 hour incubation at ambient temperature. The TRF signal was converted to [cGMP] through the use of a cGMP calibration curve on each microplate. EC50's were generated from the resulting dose response curves by use of a 4 parameter logistic algorithm.
Assay Buffer components HEPES and Opti-MEM® I Reduced-Serum with Glutamine (no phenol red) were from Gibco/Invitrogen. 3-Isobutyl-1-methylxanthine (IBMX) and 4-(3-Butoxy-4-methoxybenzyl)imidazolidin-2-one (RO20) were obtained from Sigma. DPBS (Dulbecco's phosphate-buffered saline) without Ca2+ and Mg2+ was purchased from GE Healthcare Bio-Sciences (Pittsburgh, Pa., USA). 384 well white Optiplates were from Perkin Elmer (Atlantic Highlands, N.J., USA). Human ANP (1-28) was purchased from Sigma (A1663) and rat ANP (1-28) from Bachem (H2100). Human-BNP (1-32 AA) was purchased from American Peptide Company (Sunnyvale, Calif., USA) (product No. 14-1-90). cGMP kits were purchased from Cisbio (Bedford, Mass., USA). The assay ready frozen (ARF) Human/rat/dog NPRA HEK JumpIn Stable frozen cells (low passage number 5-11) were prepared in-house.
Compounds and cells were incubated at 37° C. with 5% CO2 for 1 hour, after which the cells were lysed and cGMP was captured using a CisBio cGMP HTRF assay kit. The TRF signal was measured with an Envision® plate reader (Perkin Elmer)(emission set to 615 and 665 nm) after 1 hour incubation at ambient temperature. The TRF signal was converted to [cGMP] through the use of a cGMP calibration curve on each microplate. EC50's were generated from the resulting dose response curves by use of a 4 parameter logistic algorithm.
hNPRA EC50 (nM) are were determined for the compounds of Example 1 through 273 and are reported in the Experimental section of this application.
As to `CC(C)[C@]1(F)CCc2nc3c(F)cc(C(=O)N[C@H](CCN4CCC(CN5CCOCC5)CC4)c4ccc(-c5ccnnc5)nc4)cc3cc2C1` (racemic) [Example 60, rac-(7S)-4,7-difluoro-7-isopropyl-N-[rac-(1R)-3-[4-(morpholinomethyl)-1-piperidyl]-1-(6-pyridazin-4-yl-3-pyridyl)propyl]-6,8-dihydro-5H-acridine-2-carboxamide], a half-maximal response (EC50) required 0.182 µM.

As to `CC(C)[C@]1(F)CCc2nc3c(F)cc(C(=O)N[C@H](CCN4[C@H](C)CCC[C@@H]4C)c4ccc(-c5ccnnc5)nc4)cc3cc2C1` (racemic) [Example 61, rac-(7S)-4,7-difluoro-7-isopropyl-N-[rac-(1R)-1-(6-pyridazin-4-yl-3-pyridyl)-3-[rac-(2R,6S)-2,6-dimethyl-1-piperidyllpropyl]-6,8-dihydro-5H-acridine-2-carboxamide], the EC50 is 0.103 µM.

Turning to `CC(C)[C@]1(F)CCc2nc3c(F)cc(C(=O)N[C@H](CCN4CCC5(CCO5)CC4)c4ccc(-c5ccnnc5)nc4)cc3cc2C1` (racemic) [Example 62, rac-(7S)-4,7-difluoro-7-isopropyl-N-[rac-(1R)-3-(1-oxa-7-azaspiro[3.5]nonan-7-yl)-1-(6-pyridazin-4-yl-3-pyridyl)propyl]-6,8-dihydro-5H-acridine-2-carboxamide], the EC50 stood at 0.0603 µM.

In the case of `CC(C)[C@]1(F)CCc2nc3c(F)cc(C(=O)N[C@H](CCN4CC(O)C4)c4ccc(-c5ccnnc5)nc4)cc3cc2C1` (racemic) [Example 63, rac-(7S)-4,7-difluoro-7-isopropyl-N-[rac-(1R)-3-(3-hydroxyazetidin-1-ium-1-yl)-1-(6-pyridazin-4-yl-3-pyridyl)propyl]-6,8-dihydro-5H-acridine-2-carboxamide;2,2,2-trifluoroacetate], the concentration giving a half-maximal response (EC50) was determined as 1.19 µM.

Compound `CC(C)[C@]1(F)CCc2nc3c(F)cc(C(=O)N[C@H](CCN4CCC(C(F)(F)F)CC4)c4ccc(-c5ccnnc5)nc4)cc3cc2C1` (racemic) [Example 64, rac-(7S)-4,7-difluoro-7-isopropyl-N-[rac-(1R)-1-(6-pyridazin-4-yl-3-pyridyl)-3-[4-(trifluoromethyl)-1-piperidyllpropyl]-6,8-dihydro-5H-acridine-2-carboxamide] came in with an EC50 of 1.06 µM.

The compound `COC(=O)CC1CCN(CC[C@@H](NC(=O)c2ccc3nc4c(cc3c2)C[C@@H](C2(C)CC2)CC4)c2cccc(C(=O)NC3CN(C)C3)c2)CC1` (racemic) [Example 65, methyl 2-[1-[rac-(3R)-3-[(1-methylazetidin-3-yl)carbamoyl]phenyl]-3-[[rac-(7S)-7-(1-methylcyclopropyl)-5,6,7,8-tetrahydroacridine-2-carbonyl]amino]propyl]-4-piperidyl]acetate] showed an EC50 of 0.359 µM.

`CN1CC(NC(=O)c2cccc([C@@H](CCN3CCC(CC(=O)O)CC3)NC(=O)c3ccc4nc5c(cc4c3)C[C@@H](C3(C)CC3)CC5)c2)C1` (racemic) [Example 66, 2-[1-[rac-(3R)-3-[3-[(1-methylazetidin-3-yl)carbamoyl]phenyl]-3-[[rac-(7S)-7-(1-methylcyclopropyl)-5,6,7,8-tetrahydroacridine-2-carbonyl]amino]propyl]-4-piperidyl]acetic acid] came in with an EC50 of 0.398 µM.

In turn, `CN(C)CC[C@@H](NC(=O)c1ccc2nc3c(cc2c1)C[C@@H](C1(C)CC1)CC3)c1cccc(C(=O)NC2CN(C)C2)c1` (racemic) [Example 67, rac-(7S)-7-(1-methylcyclopropyl)-N-[rac-(1R)-3-(dimethylamino)-1-[3-[(1-methylazetidin-3-yl)carbamoyl]phenyl]propyl]-5,6,7,8-tetrahydroacridine-2-carboxamide] yielded a concentration for a half-maximal effect (EC50) of 0.378 µM.

In turn, `CN1CC(NC(=O)c2cccc([C@@H](CCN3CCC(O)CC3)NC(=O)c3ccc4nc5c(cc4c3)C[C@@H](C3(C)CC3)CC5)c2)C1` (racemic) [Example 68, rac-(7S)-7-(1-methylcyclopropyl)-N-[rac-(1R)-3-(4-hydroxy-1-piperidyl)-1-[3-[(1-methylazetidin-1-ium-3-yl)carbamoyl]phenyl]propyl]-5,6,7,8-tetrahydroacridine-2-carboxamide;2,2,2-trifluoroacetate] returned a half-maximal effective concentration (EC50) of 0.369 µM.

With `CCS(=O)(=O)c1ccc([C@@H](CCN2CCC(O)CC2)NC(=O)c2cc(F)c3nc4c(cc3c2)CC(F)(C(C)C)CC4)cn1` (stereo in doubt) [Example 30, (S)-N-((R)-1-(6-(ethylsulfonyl)pyridin-3-yl)-3-(4-hydroxypiperidin-1-yl)propyl)-4,7-difluoro-7-isopropyl-5,6,7,8-tetrahydroacridine-2-carboxamide], the EC50 amounted to 0.97 µM.

For `CC1([C@H]2CCc3nc4ccc(C(=O)N[C@H](CCN5CCC(O)CC5)c5ccc(N6CCOC6=O)cc5)cc4cc3C2)CC1` [Example 1, (S)-N-((R)-3-(4-hydroxypiperidin-1-yl)-1-(4-(2-oxooxazolidin-3-yl)phenyl)propyl)-7-(1-methylcyclopropyl)-5,6,7,8-tetrahydroacridine-2-carboxamide], the 50% effective concentration (EC50) was 0.701 µM.

Take `CC1([C@H]2CCc3nc4ccc(C(=O)N[C@H](CCN5CCC[C@H]5CO)c5ccc(N6CCOC6=O)cc5)cc4cc3C2)CC1` [Example 2, (S)-N-((R)-3-((S)-2-(hydroxymethyl)pyrrolidin-1-yl)-1-(4-(2-oxooxazolidin-3-yl)phenyl)propyl)-7-(1-methylcyclopropyl)-5,6,7,8-tetrahydroacridine-2-carboxamide]: a half-maximal response (EC50) required 1.72 µM.

`CC(C)(C)[C@H]1CCc2nc3ccc(C(=O)N[C@H](CCN4CCC(O)CC4)c4ccc(N5CCOC5=O)cc4)cc3cc2C1` [Example 3, (7S)-7-tert-butyl-N-{(1R)-3-(4-hydroxypiperidin-1-yl)-1-[4-(2-oxo-1,3-oxazolidin-3-yl)phenyl]propyl}-5,6,7,8-tetrahydroacridine-2-carboxamide] returned a concentration for a half-maximal effect (EC50) of 0.753 µM.
